Where a name gives a salt, the structure may show the parent alone.
Biological target: T1, recombinant human α1D receptor (Homo sapiens, UniProt P25100)
T1 construct: expressed in transfected cells; host or cells: human embryonic kidney 293 cells (HEK93 [sic]), membranes
T1 sequence (P25100 1-572): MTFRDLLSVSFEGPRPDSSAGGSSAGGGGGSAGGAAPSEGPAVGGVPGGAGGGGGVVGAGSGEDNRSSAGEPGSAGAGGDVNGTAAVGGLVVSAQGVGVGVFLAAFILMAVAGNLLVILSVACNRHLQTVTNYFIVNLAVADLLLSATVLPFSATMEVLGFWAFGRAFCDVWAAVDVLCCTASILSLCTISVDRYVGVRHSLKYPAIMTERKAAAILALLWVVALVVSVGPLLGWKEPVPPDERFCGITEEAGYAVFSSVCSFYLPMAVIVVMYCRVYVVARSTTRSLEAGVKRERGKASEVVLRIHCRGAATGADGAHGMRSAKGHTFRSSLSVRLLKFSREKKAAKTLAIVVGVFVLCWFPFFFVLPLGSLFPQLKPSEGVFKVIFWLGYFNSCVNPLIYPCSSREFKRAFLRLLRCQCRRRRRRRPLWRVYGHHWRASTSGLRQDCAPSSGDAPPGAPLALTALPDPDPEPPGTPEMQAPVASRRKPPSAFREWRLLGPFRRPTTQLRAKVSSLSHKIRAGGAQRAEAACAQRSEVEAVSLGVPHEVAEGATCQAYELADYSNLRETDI
Assay: Adrenergic α1D selectivity assay, [3H]-prazosin binding to membranes
Conditions: inhibition of [3H]-prazosin binding, HEK cell membranes, read-out: α1 bind pIC50 (converted)
In short: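 Competition binding on HEK293 membranes with recombinant human α1D receptor, 0.3 nM [3H]-prazosin, 50 mM HEPES/1 mM EDTA pH 7.4, 2 h at room temperature; filtration and scintillation counting. Non-specific binding defined with 10 μM BMY7378. pIC50 from four-parameter logistic fit of specific-binding inhibition.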

| SMILES | IC50 [µM] |
| --- | --- |
| O=C1COc2c(CCNCCN(C(=O)CCNCCc3ccc(Cl)cc3)C3CCCCC3)ccc(O)c2N1 [Example 32, 3-(4-Chlorophenethylamino)-N-cyclohexyl-N-(2-(2-(5-hydroxy-3-oxo-3,4-dihydro-2H-benzo[b][1,4]oxazin-8-yl)ethylamino)ethyl)propanamide bis(trifluoroacetate)] | 0.251 |
| O=C1COc2c(CCNCCN(C(=O)CCNCCc3cc(F)cc(F)c3)C3CCCCC3)ccc(O)c2N1 [Example 35, N-Cyclohexyl-3-(3,5-difluorophenethylamino)-N-(2-(2-(5-hydroxy-3-oxo-3,4-dihydro-2H-benzo[b][1,4]oxazin-8-yl)ethylamino)ethyl)propanamide bis(trifluoroacetate)] | 0.398 |
| O=C1COc2c(CCNCCN(C(=O)CCNCCc3cc(F)cc(Cl)c3)C3CCCCCC3)ccc(O)c2N1 [Example 66, 3-(3-Chloro-5-fluorophenethylamino)-N-cycloheptyl-N-(2-(2-(5-hydroxy-3-oxo-3,4-dihydro-2H-benzo[b][1,4]oxazin-8-yl)ethylamino)ethyl)propanamide bis(trifluoroacetate)] | 0.398 |
| O=CNc1cc(CCNCCN(C(=O)CCNCCc2ccccc2)C2CCCCC2)ccc1O [Example 21, N-Cyclohexyl-N-(2-(3-formamido-4-hydroxyphenethylamino)ethyl)-3-(phenethylamino)propanamide] | 0.0794 |
| O=C1COc2c(CCNCCN(C(=O)CCNCCc3cc(F)ccc3F)C3CCCCC3)ccc(O)c2N1 [Example 38, N-Cyclohexyl-3-(2,5-difluorophenethylamino)-N-(2-(2-(5-hydroxy-3-oxo-3,4-dihydro-2H-benzo[b][1,4]oxazin-8-yl)ethylamino)ethyl)propanamide bis(trifluoroacetate)] | 0.158 |
| CC[C@@H](C)N(CCNCCc1ccc(O)c2c1OCC(=O)N2)C(=O)CCNCCc1ccc(Cl)c(Cl)c1 [Example 58, (R)—N-sec-Butyl-3-(3,4-dichlorophenethylamino)-N-(2-(2-(5-hydroxy-3-oxo-3,4-dihydro-2H-benzo[b][1,4]oxazin-8-yl)ethylamino)ethyl)propanamide dihydrochloride] | 0.1 |
| CC[C@@H](C)N(CCNCCc1ccc(O)c2[nH]c(=O)ccc12)C(=O)CCOCCc1ccccc1.Cl [Example 79, (R)—N-sec-Butyl-N-(2-(2-(8-hydroxy-2-oxo-1,2-dihydroquinolin-5-yl)ethylamino)ethyl)-3-phenethoxypropanamide hydrochloride] | 0.631 |
| O=C(CCNCCc1ccc(Cl)cc1)N(CCNCCc1ccc(O)c2[nH]c(=O)ccc12)C1CCCCC1 [Example 14, 3-(4-Chlorophenethylamino)-N-cyclohexyl-N-(2-(2-(8-hydroxy-2-oxo-1,2-dihydroquinolin-5-yl)ethylamino)ethyl)propanamide bis(trifluoroacetate)] | 0.501 |
| CCCC[C@@H](C)N(CCNCCc1ccc(O)c2c1OCC(=O)N2)C(=O)CCNCCc1cc(C)ccc1F [Example 56, (R)-3-(2-Fluoro-5-methylphenethylamino)-N-(hexan-2-yl)-N-(2-(2-(5-hydroxy-3-oxo-3,4-dihydro-2H-benzo[b][1,4]oxazin-8-yl)ethylamino)ethyl)propanamide bis(trifluoroacetate)] | 0.0316 |
| C[C@H](C1CCCCC1)N(CCNCCc1ccc(O)c2c1OCC(=O)N2)C(=O)CCNCCc1ccccc1 [Example 61, (R)—N-(1-Cyclohexylethyl)-N-(2-(2-(5-hydroxy-3-oxo-3,4-dihydro-2H-benzo[b][1,4]oxazin-8-yl)ethylamino)ethyl)-3-(phenethylamino)propanamide bis(trifluoroacetate)] | 0.02 |
| O=C(CCOCCc1ccccc1)N(CCNCCc1ccc(O)c2[nH]c(=O)ccc12)C1CCCCC1 [Example 2, N-Cyclohexyl-N-(2-(2-(8-hydroxy-2-oxo-1,2-dihydroquinolin-5-yl)ethylamino)ethyl)-3-phenethoxypropanamide] | 0.794 |
